The text below walks through data of patent US11608318B2, “Solid state forms of Omecamtiv mecarbil and Omecamtiv mecarbil diHCl” (ASSIA CHEMICAL INDUSTRIES LTD., priority 2018, dated 2023).

Text in the data set: (§1) Pharmaceutical molecules may display solid to solid phase transformations and transformations between polymorphs; which may detected by exposure of the solid state form to stress conditions of e.g., high temperature and high relative humidity.
as §1

Consider “Malonic Omecamtiv mecarbil diHCl [form OCM-3]”, for which the “thermodynamic and mechanical stability of the solid state form (polymorphic conversion)” value was “thermodynamically and mechanically stable”.
